In ChEMBL document CHEMBL4393659, “Insights into the chemistry and therapeutic potential of furanones: A versatile pharmacophore” (Eur J Med Chem, 2019):
Values after ≈ are worked out from the molar mass of the structure shown.

Experiments:
Plasmodium falciparum = test: Antimalarial activity against Plasmodium falciparum infected in human blood assessed as reduction in cell viability incubated for 72 hrs by Giemsa stain based assay; type: functional
Rattus norvegicus [1] = species: Rattus norvegicus; test: Antiarthritic activity in adjuvant-induced Sprague-Dawley rat; type: functional
Escherichia coli [2] = test: Antibacterial activity against Escherichia coli assessed as inhibition zone incubated for 24 hrs by disk diffusion method relative to control; type: functional
A549 = test: Cytotoxicity against human A549 cells assessed as reduction in cell viability incubated for 48 hrs by SRB method; type: functional; settings: A549, 48 h, read-out: ED50 (the source's name)
SK-OV-3 = test: Cytotoxicity against human SKOV3 cells assessed as reduction in cell viability incubated for 48 hrs by SRB method; type: functional; settings: SK-OV-3, 48 h, read-out: ED50 (the source's name)
NIH3T3 = test: Cytotoxicity against mouse NIH/3T3 cells assessed as reduction in cell viability incubated for 48 hrs by SRB method; type: functional; settings: NIH3T3, 48 h, read-out: ED50 (the source's name)
Staphylococcus aureus [3] = test: Antibacterial activity against Staphylococcus aureus; type: functional
Escherichia coli [4] = test: Antibacterial activity against Escherichia coli; type: functional
[5] = Ulcerogenicity in Wistar rat assessed as gastric lesions by measuring ulcer severity index at 60 mg/kg , po measured after 17 hrs relative to ibuprofen; type: toxicity, organism-based; settings: in vivo
Staphylococcus aureus [6] = test: Antibacterial activity against Staphylococcus aureus ATCC 29737 assessed as reduction in bacterial cell viability incubated for 24 hrs by broth microdilution method; type: functional; settings: ATCC 29737, 24 h
Pseudomonas aeruginosa = test: Antibacterial activity against Pseudomonas aeruginosa NCLM-2035 assessed as reduction in bacterial cell viability incubated for 24 hrs by broth microdilution method; type: functional; settings: NCLM-2035, 24 h
Rhizopus arrhizus = test: Antifungal activity against Rhizopus oryzae assessed as reduction in fungal cell viability incubated for 48 hrs by broth microdilution method; type: functional
Candida albicans [7] = test: Antifungal activity against Candida albicans assessed as reduction in fungal cell viability incubated for 48 hrs by broth microdilution method; type: functional
Escherichia coli [8] = test: Antibacterial activity against Escherichia coli ATCC 8739 assessed as reduction in bacterial cell viability incubated for 24 hrs by broth microdilution method; type: functional; settings: ATCC 8739, 24 h
Aspergillus niger = test: Antifungal activity against Aspergillus niger assessed as reduction in fungal cell viability incubated for 48 hrs by broth microdilution method; type: functional
[9] = target: Prostaglandin G/H synthase 2 (Homo sapiens, UniProt P35354); test: Inhibition of recombinant human COX2 expressed in baculovirus infected Sf9 cells
[10] = target: GABA-A receptor; alpha-1/beta-2/gamma-2 (Homo sapiens) (UniProt P14867+P47870+P18507); test: Positive allosteric modulation of recombinant GABAA alpha1beta2gamma2 (unknown origin) expressed in Xenopus laevis oocytes assessed as increase GABA-stimulated current amplitude at 200 uM by electrophysiological two-electrode voltage clamp method; type: cell-based
Salmonella typhimurium = test: Inhibition of biofilm formation in Salmonella enterica subsp. enterica serovar Typhimurium 14028S incubated for 48 hrs by crystal violet staining based assay; type: functional, organism-based
Phospholipase A2 = Phospholipase A2 (Apis mellifera, UniProt P00630); test: Inhibition of bee venom phospholipase A2 preincubated for 1 hr followed by addition of phosphotidylcholine and 1-palmitoyl-2-(1-14C) palmitoyl further incubated for 10 mins and measured after 15 secs by scintillation counting method
Rattus norvegicus [11] = test: Antiinflammatory activity in albino rat assessed as inhibition of carrageenan-induced paw edema by measuring mercury displacement at 20 mg/kg , po relative to control; type: functional
[12] = target: GABA-A receptor; anion channel; test: Displacement of [35S]TBPS from GABAA (unknown origin) incubated for 90 mins by scintillation counting method; type: protein-complex assay, Homo sapiens
Mus musculus [13] = test: Anticonvulsant activity in ip dosed CF-1 mouse assessed as protection against PTZ-induced seizures measured after 30 mins […]; type: functional
Rattus norvegicus [14] = test: Antiinflammatory activity in Sprague-Dawley rat assessed as inhibition of carrageenan-induced paw edema at 3 mg/kg , po relative to control; type: functional
Mus musculus [15] = test: Anticonvulsant activity in ip dosed mouse assessed as reduction in PTZ-induced seizures pretreated for 30 mins followed by PTZ addition; type: functional
Rattus norvegicus [16] = test: Antiinflammatory activity in Wistar rat assessed as inhibition of carrageenan-induced edema measured upto 4 hrs; type: functional
[17] = Acute toxicity in Swiss albino mouse assessed as reduction in mortality of animal at 200 to 800 mg/kg , ip observed for 8 days; type: organism-based; settings: in vivo
Candida albicans [18] = test: Antifungal activity against Candida albicans ATCC 90028 assessed as reduction in fungal cell viability measured after 24 and 48 hrs by spectrophotometry; type: functional
Rattus norvegicus [19] = test: Antiinflammatory activity in Sprague-Dawley rat assessed as inhibition of carrageenan-induced paw edema at 3 mg/kg , po incubated for 1 hr followed by carrageenan addition and measured after 4 hrs relative to control; type: functional
[20] = Ulcerogenicity in Sprague-Dawley rat assessed as gastric lesions at 30 mg/kg , po measured after 4 hrs; type: toxicity, organism-based; settings: in vivo
Liver = test: Antioxidant activity in Wistar rat liver microsomes assessed as inhibition of AAPH-induced MDA production at 100 mM incubated for 15 mins; type: functional; settings: Microsome
Rattus norvegicus [21] = test: Antiinflammatory activity in Wistar albino rat assessed as inhibition of carrageenan-induced paw edema at 20 mg/kg , po incubated for 30 mins followed by carrageenan addition and measured after 3 hrs by plethysmometry relative to control; type: functional
Mus musculus [22] = test: Analgesic activity in Swiss albino mouse assessed as inhibition of acetic acid induced writhing at 20 mg/kg , po incubated for 3 hrs followed by acetic acid administered and observed for 5 to 15 mins relative to control; type: functional
Rattus norvegicus [23] = test: Antiinflammatory activity in po dosed rat; type: functional

Prostaglandin G/H synthase 2, sequence (P35354 whole entry): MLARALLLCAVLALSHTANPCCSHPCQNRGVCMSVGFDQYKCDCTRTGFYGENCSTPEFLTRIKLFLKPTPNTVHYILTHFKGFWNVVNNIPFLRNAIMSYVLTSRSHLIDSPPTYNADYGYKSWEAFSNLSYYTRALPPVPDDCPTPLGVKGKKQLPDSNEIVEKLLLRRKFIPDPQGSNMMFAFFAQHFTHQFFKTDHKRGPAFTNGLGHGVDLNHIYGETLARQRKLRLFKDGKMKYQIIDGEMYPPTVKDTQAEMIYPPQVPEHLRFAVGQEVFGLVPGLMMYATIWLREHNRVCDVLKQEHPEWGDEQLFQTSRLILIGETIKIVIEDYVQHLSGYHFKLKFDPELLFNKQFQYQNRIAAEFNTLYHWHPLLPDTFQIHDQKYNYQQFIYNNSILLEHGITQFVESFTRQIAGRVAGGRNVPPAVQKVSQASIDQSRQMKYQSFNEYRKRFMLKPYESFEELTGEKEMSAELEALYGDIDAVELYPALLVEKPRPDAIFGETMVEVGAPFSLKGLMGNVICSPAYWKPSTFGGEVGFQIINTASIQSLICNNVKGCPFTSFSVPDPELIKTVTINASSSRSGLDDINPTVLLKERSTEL
Phospholipase A2, sequence (P00630 whole entry): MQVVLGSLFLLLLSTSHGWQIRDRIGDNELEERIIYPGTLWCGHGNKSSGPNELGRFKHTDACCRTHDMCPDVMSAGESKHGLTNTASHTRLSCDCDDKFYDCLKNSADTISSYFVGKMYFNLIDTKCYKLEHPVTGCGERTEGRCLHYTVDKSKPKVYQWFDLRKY

With `COc1cccc2cc(/C=C3/CC(c4ccc(Cl)cc4)OC3=O)c(Cl)nc12` (centres undefined) the MIC (Plasmodium falciparum) was 0.5 to 0.72 µg/mL (≈ 1.25 to 1.8 µM).

With `Cc1ccc(-c2cc(C(F)(F)F)nn2-c2ccc(S(N)(=O)=O)cc2)cc1` [CELECOXIB] the ED50 (Rattus norvegicus [1]) was 0.2 mg/kg/day.

With `CC1COc2c(N3CCN(C)CC3)c(F)cc3c(=O)c(C(=O)O)cn1c23` (centres undefined) [OFLOXACIN] the “inhibition zone (IZ)” value (Escherichia coli [2]) was 24 mm.

Compound `O=C1C=C/C(=C\c2cccc([N+](=O)[O-])c2)O1` has an EC50 (A549) of 5.9 to 21 µg/mL (≈ 27.2 to 96.7 µM), an EC50 (SK-OV-3) of 5.9 to 21 µg/mL (≈ 27.2 to 96.7 µM) and an EC50 (NIH3T3) of 5.9 to 21 µg/mL (≈ 27.2 to 96.7 µM).

With `C/C(C#N)=C1/OC(c2ccc(C)cc2)=C(Cl)C1=O` the MIC (Staphylococcus aureus [3]) was 15.6 µg/mL (≈ 60.1 µM) and the MIC (Escherichia coli [4]) was 62.5 µg/mL (≈ 241 µM).

`CC(C)Cc1ccc(C2=C/C(=C\c3ccccc3Cl)C(=O)O2)cc1` gave a UI [5] of 0.2.

Compound `O=C1OC(c2ccc(Cl)cc2)=C/C1=C\c1ccc(F)cc1` has an MIC (Staphylococcus aureus [6]) of 12.5 to 50 µg/mL (≈ 41.6 to 166 µM), an MIC (Pseudomonas aeruginosa) of 12.5 to 50 µg/mL (≈ 41.6 to 166 µM) and an MIC (Rhizopus arrhizus) of 12.5 to 50 µg/mL (≈ 41.6 to 166 µM). It also gave an MIC (Candida albicans [7]) of 12.5 to 50 µg/mL (≈ 41.6 to 166 µM), an MIC (Escherichia coli [8]) of 12.5 to 50 µg/mL (≈ 41.6 to 166 µM) and an MIC (Aspergillus niger) of 12.5 to 50 µg/mL (≈ 41.6 to 166 µM).

`Cc1ccc2c(c1)C1=C(c3ccc(S(C)(=O)=O)cc3)C(=O)OC1CC2` (centres undefined) showed an IC50 [9] of 0.5 to 0.6 µM.

With `C=CCOC(=O)NC1COC(=O)C1(CCC)CCC` (centres undefined) the Activity [10] was 420%.

For `O=C1C(Br)=C(c2ccccc2)O/C1=N\C12CC3CC(CC(C3)C1)C2`, the MIC (Escherichia coli [4]) was 15.6 µg/mL (≈ 40.4 µM).

With `O=C1C=C/C(=C/Br)O1` the IC50 (Salmonella typhimurium) was 15 µM.

In the case of `COc1ccc(C2=C/C(=C/c3ccc(N(C)C)cc3)C(=O)O2)cc1`, the “inhibition zone (IZ)” value (Escherichia coli [2]) is reported as 16 mm.

With `CS(=O)(=O)c1ccc(C2=C3c4ccccc4CCC3OC2=O)cc1` (centres undefined) the IC50 [9] was 0.5 to 0.6 µM.

With `CC(C)(C)C(=O)OC(CCCCCCCCCCCCC(OC(=O)C(C)(C)C)C1=CC(=O)OC1OC(=O)Nc1ccccc1)C1=CC(=O)OC1OC(=O)Nc1ccccc1` (centres undefined) the IC50 (Phospholipase A2) was > 1 µM.

`COc1cc(/C=C2/C=C(c3ccc(C)cc3)OC2=O)cc(OC)c1OC` showed an inhibition in vivo at 20 mg/kg (Rattus norvegicus [11]) of 45.2%.

`CCC1(C)CC(C)(C(F)(F)F)OC1=O` (centres undefined) showed an IC50 [12] of 224 µM and a CD50 (Mus musculus [13]) of 47 mg/kg.

In the case of `COc1ccc(C2=C/C(=C/c3ccc(F)cc3)C(=O)O2)cc1`, the “inhibition zone (IZ)” value (Escherichia coli [2]) is reported as 14 mm.

Work on `CC1(C)OC(c2ccc(S(C)(=O)=O)cc2)=C(c2cccc(C(F)(F)F)c2)C1=O` yielded an ED50 (Rattus norvegicus [1]) of 0.06 mg/kg/day and an inhibition in vivo at 3 mg/kg (Rattus norvegicus [14]) of 32%.

For `CCC1(CC)CC(CCNC(=O)c2ccccc2)OC1=O` (centres undefined), the ED50 (Mus musculus [15]) was 89.9 to 285 mg/kg.

For `O=C1OC(c2ccc(-c3ccccc3)cc2)=C/C1=C\c1cc2ccccc2nc1Cl`, the “inhibition (INH)” value (Rattus norvegicus [16]) was 56 - 63%.

Compound `CC(C)Cc1ccc(C2=C/C(=C\c3ccc(F)cc3)C(=O)O2)cc1` has a UI [5] of 0.1.

For `O=C1C=CC(=C(Br)Br)O1`, the IC50 (Salmonella typhimurium) was 15 µM.

In the case of `COc1cc(C2OC(=O)CC2C(C)=O)cc(OC)c1O` (centres undefined), the LD50 at 192 h [17] is reported as 200 mg/kg.

With `CC(=O)OCC1C=C(c2cccc(Cl)c2)C(=O)O1` (centres undefined) the MIC (Candida albicans [18]) was 1 µg/mL (≈ 3.75 µM).

For `COc1cccc2cc(/C=C3/CC(c4ccc(Cl)c(Cl)c4)OC3=O)c(Cl)nc12` (centres undefined), the MIC (Plasmodium falciparum) was 0.5 to 0.72 µg/mL (≈ 1.15 to 1.66 µM).

Compound `CC1(C)OC(c2ccc(S(C)(=O)=O)cc2)=C(c2cc(F)cc(F)c2)C1=O` has an inhibition in vivo at 3 mg/kg (Rattus norvegicus [19]) of 34%, an ED50 (Rattus norvegicus [1]) of 0.03 mg/kg/day and a UI [20] of 1.8. For the same compound, the inhibition in vivo at 3 mg/kg (Rattus norvegicus [14]) was 34%.

`CCCC1(CCC)C(=O)OCC1NC(=O)OCC` (centres undefined) gave an Activity [10] of 426%.

`Cc1c(C)c2c(c(C)c1O)CCC(C)(CC1OC[C@@H]([C@H]3OC(=O)C(O)=C3O)O1)O2` (some centres undefined) showed an inhibition (Liver) of 100%.

Work on `O=C1OC(c2ccc3ccccc3c2)=C/C1=C\c1ccccc1[N+](=O)[O-]` yielded an inhibition in vivo at 20 mg/kg (Rattus norvegicus [21]) of 74.8 to 89.7% and an inhibition in vivo at 20 mg/kg (Mus musculus [22]) of 70 to 74%.

`CC1(O)OC(=O)C(c2ccc(Cl)cc2)=C1c1ccc(S(C)(=O)=O)cc1` (centres undefined) showed an ED50 (Rattus norvegicus [23]) of 1.4 mg/kg.
